Measured values: patent US9499550B2 (BRISTOL-MYERS SQUIBB COMPANY, priority 2012, dated 2016)

Assays:
[1] = test system: HCV genotype 1a (H77 strain) replicon in HUH-7 cells; experiment: HCV replicon luciferase reporter assay, genotype 1a; type: cell-based; conditions: Hepatitis C virus, Huh-7, 72 h, HCV genotype 1a replicon luciferase assay, 3 days incubation, range class, read-out: LE_1a (EC50, range)
How it was run: (§1)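 Replicon inhibition for both genotypes was measured as Renilla luciferase signal (EnduRen, 7.5 μM final, 2 h) after 3-day, 37° C exposure of replicon-bearing HUH-7 cells in 4% FCS DMEM, 0.5% DMSO. The 1b construct carries S1179I; the 1a H77 construct carries P1496L and S2204I. Twenty-point, 3-fold dilutions were fitted four-parametrically for EC50, and CC50 was taken from multiplexed Cell Titer-Blue.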

[2] = test system: HCV genotype 1b (Con1) replicon in HUH-7 cells; experiment: HCV replicon luciferase reporter assay, genotype 1b; type: cell-based; conditions: Hepatitis C virus, Huh-7, 72 h, HCV genotype 1b replicon luciferase assay, 3 days incubation, range class, read-out: LE_1b (EC50, range)
How it was run: as §1

COc1ccc2c(O[C@@H]3C[C@H]4C(=O)N[C@]5(C(=O)NS(=O)(=O)C6(C)CC6)C[C@H]5/C=C\CC[C@@H](C)C[C@@H](C)[C@H](NC(=O)OC(C)(C)C)C(=O)N4C3)nc(N3CCOCC3)cc2c1 [Compound 3089, tert-butyl ((2R,6S,7R,9R,13aS,14aR,16aS,Z)-2-((6-methoxy-3-morpholinoisoquinolin-1-yl)oxy)-7,9-dimethyl-14a-(((1-methylcyclopropyl)sulfonyl)carbamoyl)-5,16-dioxo-1,2,3,5,6,7,8,9,10,11,13a,14,14a,15,16,16a-hexadecahydrocyclopropa[e]pyrrolo[1,2-a][1,4]diazacyclopentadecin-6-yl)carbamate]
EC50 [1]: < 5.46 nM | EC50 [2]: < 5.46 nM

COc1ccc2c(O[C@@H]3C[C@H]4C(=O)N[C@]5(C(=O)NS(=O)(=O)C6(C)CC6)C[C@H]5/C=C\CC[C@H](C)C[C@@H](C)[C@H](NC(=O)OCC5(C)CC5)C(=O)N4C3)nc(N3CCOCC3)cc2c1 [Compound 3090, (1-methylcyclopropyl)methyl ((2R,6S,7R,9S,13aS,14aR,16aS,Z)-2-((6-methoxy-3-morpholinoisoquinolin-1-yl)oxy)-7,9-dimethyl-14a-(((1-methylcyclopropyl)sulfonyl)carbamoyl)-5,16-dioxo-1,2,3,5,6,7,8,9,10,11,13a,14,14a,15,16,16a-hexadecahydrocyclopropa[e]pyrrolo[1,2-a][1,4]diazacyclopentadecin-6-yl)carbamate]
EC50 [1]: 4.82 to 103 nM | EC50 [2]: < 5.46 nM

COc1ccc2c(O[C@@H]3C[C@H]4C(=O)N[C@]5(C(=O)NS(=O)(=O)C6(C)CC6)C[C@H]5/C=C\CC[C@@H](C)C[C@@H](C)[C@H](NC(=O)OCC5(C)CC5)C(=O)N4C3)nc(N3CCOCC3)cc2c1 [Compound 3091, (1-methylcyclopropyl)methyl ((2R,6S,7R,9R,13aS,14aR,16aS,Z)-2-((6-methoxy-3-morpholinoisoquinolin-1-yl)oxy)-7,9-dimethyl-14a-(((1-methylcyclopropyl)sulfonyl)carbamoyl)-5,16-dioxo-1,2,3,5,6,7,8,9,10,11,13a,14,14a,15,16,16a-hexadecahydrocyclopropa[e]pyrrolo[1,2-a][1,4]diazacyclopentadecin-6-yl)carbamate]
EC50 [1]: < 5.46 nM | EC50 [2]: < 5.46 nM

COc1ccc2c(O[C@@H]3C[C@H]4C(=O)N[C@]5(C(=O)NS(=O)(=O)C6(C)CC6)C[C@H]5/C=C\CC[C@H](C)C[C@@H](C)[C@H](NC(=O)O[C@H](C)C(F)(F)F)C(=O)N4C3)nc(N3CCOCC3)cc2c1 [Compound 3092, (R)-1,1,1-trifluoropropan-2-yl ((2R,6S,7R,9S,13aS,14aR,16aS,Z)-2-((6-methoxy-3-morpholinoisoquinolin-1-yl)oxy)-7,9-dimethyl-14a-(((1-methylcyclopropyl)sulfonyl)carbamoyl)-5,16-dioxo-1,2,3,5,6,7,8,9,10,11,13a,14,14a,15,16,16a-hexadecahydrocyclopropa[e]pyrrolo[1,2-a][1,4]diazacyclopentadecin-6-yl)carbamate]
EC50 [1]: < 5.46 nM | EC50 [2]: < 5.46 nM

COc1ccc2c(O[C@@H]3C[C@H]4C(=O)N[C@]5(C(=O)NS(=O)(=O)C6(C)CC6)C[C@H]5/C=C\CC[C@@H](C)C[C@@H](C)[C@H](NC(=O)O[C@H](C)C(F)(F)F)C(=O)N4C3)nc(N3CCOCC3)cc2c1 [Compound 3093, (R)-1,1,1-trifluoropropan-2-yl ((2R,6S,7R,9R,13aS,14aR,16aS,Z)-2-((6-methoxy-3-morpholinoisoquinolin-1-yl)oxy)-7,9-dimethyl-14a-(((1-methylcyclopropyl)sulfonyl)carbamoyl)-5,16-dioxo-1,2,3,5,6,7,8,9,10,11,13a,14,14a,15,16,16a-hexadecahydrocyclopropa[e]pyrrolo[1,2-a][1,4]diazacyclopentadecin-6-yl)carbamate]
EC50 [1]: < 5.46 nM | EC50 [2]: < 5.46 nM

COc1ccc2c(O[C@@H]3C[C@H]4C(=O)N[C@]5(C(=O)NS(=O)(=O)C6(C)CC6)C[C@H]5/C=C\CC[C@H](C)C[C@@H](C)[C@H](NC(=O)OC(C)(C)C(F)(F)F)C(=O)N4C3)nc(N3CCOCC3)cc2c1 [Compound 3094, 1,1,1-trifluoro-2-methylpropan-2-yl((2R,6S,7R,9S,13aS,14aR,16aS,Z)-2-((6-methoxy-3-morpholinoisoquinolin-1-yl)oxy)-7,9-dimethyl-14a-(((1-methylcyclopropyl)sulfonyl)carbamoyl)-5,16-dioxo-1,2,3,5,6,7,8,9,10,11,13a,14,14a,15,16,16a-hexadecahydrocyclopropa[e]pyrrolo[1,2-a][1,4]diazacyclopentadecin-6-yl)carbamate]
EC50 [1]: 4.82 to 103 nM | EC50 [2]: < 5.46 nM

COc1ccc2c(O[C@@H]3C[C@H]4C(=O)N[C@]5(C(=O)NS(=O)(=O)C6(C)CC6)C[C@H]5/C=C\CC[C@@H](C)C[C@@H](C)[C@H](NC(=O)OC(C)(C)C(F)(F)F)C(=O)N4C3)nc(N3CCOCC3)cc2c1 [Compound 3095, 1,1,1-trifluoro-2-methylpropan-2-yl((2R,6S,7R,9R,13aS,14aR,16aS,Z)-2-((6-methoxy-3-morpholinoisoquinolin-1-yl)oxy)-7,9-dimethyl-14a-(((1-methylcyclopropyl)sulfonyl)carbamoyl)-5,16-dioxo-1,2,3,5,6,7,8,9,10,11,13a,14,14a,15,16,16a-hexadecahydrocyclopropa[e]pyrrolo[1,2-a][1,4]diazacyclopentadecin-6-yl)carbamate]
EC50 [1]: < 5.46 nM | EC50 [2]: < 5.46 nM

COc1ccc2c(O[C@@H]3C[C@H]4C(=O)N[C@]5(C(=O)NS(=O)(=O)C6(C)CC6)C[C@H]5/C=C\CC[C@H](C)C[C@@H](C)[C@H](NC(=O)O[C@@H]5C[C@@H]6C[C@@H]6C5)C(=O)N4C3)nc(N3CCOCC3)cc2c1 [Compound 3096, (1R,3r,5S)-bicyclo[3.1.0]hexan-3-yl((2R,6S,7R,9S,13aS,14aR,16aS,Z)-2-((6-methoxy-3-morpholinoisoquinolin-1-yl)oxy)-7,9-dimethyl-14a-(((1-methylcyclopropyl)sulfonyl)carbamoyl)-5,16-dioxo-1,2,3,5,6,7,8,9,10,11,13a,14,14a,15,16,16a-hexadecahydrocyclopropa[e]pyrrolo[1,2-a][1,4]diazacyclopentadecin-6-yl)carbamate]
EC50 [1]: 4.82 to 103 nM | EC50 [2]: < 5.46 nM

COc1ccc2c(O[C@@H]3C[C@H]4C(=O)N[C@]5(C(=O)NS(=O)(=O)C6(C)CC6)C[C@H]5/C=C\CC[C@@H](C)C[C@@H](C)[C@H](NC(=O)O[C@@H]5C[C@@H]6C[C@@H]6C5)C(=O)N4C3)nc(N3CCOCC3)cc2c1 [Compound 3097, (1R,3r,5S)-bicyclo[3.1.0]hexan-3-yl((2R,6S,7R,9R,13aS,14aR,16aS,Z)-2-((6-methoxy-3-morpholinoisoquinolin-1-yl)oxy)-7,9-dimethyl-14a-(((1-methylcyclopropyl)sulfonyl)carbamoyl)-5,16-dioxo-1,2,3,5,6,7,8,9,10,11,13a,14,14a,15,16,16a-hexadecahydrocyclopropa[e]pyrrolo[1,2-a][1,4]diazacyclopentadecin-6-yl)carbamate]
EC50 [1]: < 5.46 nM | EC50 [2]: < 5.46 nM

COc1ccc2c(O[C@@H]3C[C@H]4C(=O)N[C@]5(C(=O)NS(=O)(=O)C6CC6)C[C@H]5/C=C\CC[C@H](C)C[C@@H](C)[C@H](NC(=O)OC(C)(C)C(F)(F)F)C(=O)N4C3)nc(N3CCOCC3)cc2c1 [Compound 3098, 1,1,1-trifluoro-2-methylpropan-2-yl((2R,6S,7R,9S,13aS,14aR,16aS,Z)-14a-((cyclopropylsulfonyl)carbamoyl)-2-((6-methoxy-3-morpholinoisoquinolin-1-yl)oxy)-7,9-dimethyl-5,16-dioxo-1,2,3,5,6,7,8,9,10,11,13a,14,14a,15,16,16a-hexadecahydrocyclopropa[e]pyrrolo[1,2-a][1,4]diazacyclopentadecin-6-yl)carbamate]
EC50 [1]: < 5.46 nM | EC50 [2]: < 5.46 nM

COc1ccc2c(O[C@@H]3C[C@H]4C(=O)N[C@]5(C(=O)NS(=O)(=O)C6CC6)C[C@H]5/C=C\CC[C@@H](C)C[C@@H](C)[C@H](NC(=O)OC(C)(C)C(F)(F)F)C(=O)N4C3)nc(N3CCOCC3)cc2c1 [Compound 3099, 1,1,1-trifluoro-2-methylpropan-2-yl((2R,6S,7R,9R,13aS,14aR,16aS,Z)-14a-((cyclopropylsulfonyl)carbamoyl)-2-((6-methoxy-3-morpholinoisoquinolin-1-yl)oxy)-7,9-dimethyl-5,16-dioxo-1,2,3,5,6,7,8,9,10,11,13a,14,14a,15,16,16a-hexadecahydrocyclopropa[e]pyrrolo[1,2-a][1,4]diazacyclopentadecin-6-yl)carbamate]
EC50 [1]: < 5.46 nM | EC50 [2]: < 5.46 nM

[2H]C([2H])([2H])C(OC(=O)N[C@@H]1C(=O)N2C[C@H](Oc3nc(N4CCOCC4)cc4cc(OC)ccc34)C[C@H]2C(=O)N[C@]2(C(=O)NS(=O)(=O)C3CC3)C[C@H]2/C=C\CC[C@H](C)C[C@H]1C)(C([2H])([2H])[2H])C(F)(F)F [Compound 3100, 1,1,1,3,3,3-hexadeutero-2-(trifluoromethyl)propan-2-yl((2R,6S,7R,9S,13aS,14aR,16aS,Z)-14a-((cyclopropylsulfonyl)carbamoyl)-2-((6-methoxy-3-morpholinoisoquinolin-1-yl)oxy)-7,9-dimethyl-5,16-dioxo-1,2,3,5,6,7,8,9,10,11,13a,14,14a,15,16,16a-hexadecahydrocyclopropa[e]pyrrolo[1,2-a][1,4]diazacyclopentadecin-6-yl)carbamate]
EC50 [1]: < 5.46 nM | EC50 [2]: < 5.46 nM
